Here are results for two molecules from publication PMC9686568, “Novel Alligator Cathelicidin As-CATH8 Demonstrates Anti-Infective Activity against Clinically Relevant and Crocodylian Bacterial Pathogens” (Antibiotics, 2022).

Like-named read-outs stand apart in the source and are kept apart here.

The MIC is the least concentration at which growth counts as inhibited.

Series [1] has as its system S. aureus SAP0017 cytoplasmic membrane. Put plainly: Membrane depolarization (DiSC3(5)) and permeabilization (PI) assay with CFU enumeration. It counts as cell-based. To be noted: S. aureus planktonic cells, 1 h treatment.
For series [2], the system named is linearized plasmid pET28a. Put plainly: Agarose gel electrophoretic mobility shift assay (DNA binding). The procedure:
To investigate the DNA binding capacity of As-CATH8, vancomycin and polymyxin B, an agarose gel electrophoretic mobility shift assay was performed as previously described. Briefly, overnight cultures of E. coli BL21 Star cells harboring the pET28a plasmid were grown in LB supplemented with kanamycin (30 μg/mL). The pET28a plasmid was purified using the QIAprep Spin Miniprep Kit (QIAGEN Inc., Hilden, Germany) and linearized with the SmaI endonuclease (Thermofisher Scientific, Waltham, MA, USA). Linear pET28a was purified from an agarose gel using the QIAquick Gel Extraction Kit (QIAGEN Inc., Hilden, Germany).
Twofold decreasing amounts of As-CATH8 or antibiotics were incubated for 1 h at room temperature with 100 ng of linear pET28a in 10 μL of binding buffer (5% glycerol, 10 mM Tris-HCl pH 8.0, 1 mM EDTA, 1 mM DTT, 20 mM KCl and 50 μg/mL BSA). After this, 2 μL of 6× DNA Loading Dye (Thermofisher Scientific, Waltham, MA, USA) was added and the mixture was loaded onto a 1% agarose gel in TAE buffer containing SYBR Safe (Thermofisher Scientific, Waltham, MA, USA). The gel was run at 100 V for 1 h and the GeneRuler 1 kb DNA ladder (Thermofisher Scientific, Waltham, MA, USA) was used as a molecular weight marker. Finally, the gel was imaged on a ChemiDoc Touch Imaging System (BioRad Laboratories, Montreal, QC, Canada).
(In general: Mobility shift assays separate free from complexed probe on a gel.)

For series [3], the system named is S. aureus SAP0017 biofilms. Put plainly: Biofilm-killing assay. Format: cell-based. As to conditions: S. aureus 24 h biofilms, 64 × MIC. As to the method:
(§1) Biofilm-killing assays were set up like the biofilm inhibition assays previously described. […] Plates were incubated at 37 °C and bacterial biomass was scraped out of the wells with cotton swabs at 0, 0.5, 1, 2 and 20 h after treatment. Cotton tips were placed in 1 mL of LB and sonicated for 5 min, and bacterial numbers were determined by serial dilution and plating on LB agar.

Series [4] has as its system E. faecium. The series is described as follows: MIC, broth microdilution in MHB. Format: cell-based, E. faecium #1-1. The procedure:
(§2) The following bacterial pathogens were used in this study: S. enterica subsp. enterica serovar Typhimurium ATCC 14028, E. coli O157:H7 [83], the clinical isolates S. aureus SAP0017 [84] and USA300 LAC [85], E. faecium #1-1 [85], A. baumannii Ab5075 [85] and E. cloacae 218R1 [85], as well as P. aeruginosa PAO1 [34], P. vulgaris HSC7200-T2 (Hancock Lab strain collection) and K. pneumoniae KPLN49 [85].
(§3) Overnight cultures were grown in LB at 37 °C with shaking at 250 rpm, except for E. faecium, which was grown in BHI medium.
(§4) The antimicrobial activity of the crocCATHs was evaluated with the broth microdilution method as described previously. MIC was defined as the first peptide or antibiotic concentration without visible bacterial growth. Reported values are the statistical mode of at least three independent experiments.

Series [5] relates to S. aureus. The series is described as follows: MIC, broth microdilution in MHB. Format: cell-based. The procedure:
as §2, §3, §4

For series [6] the following is noted: cited from earlier work. From the text:
It is well-known that HDPs can interact with multiple extracellular and intracellular targets to exert their antimicrobial and antibiofilm effects. […] Although it seems likely that compromising the integrity of the membrane is a key component of the killing mechanism of As-CATH8, this may not always be a fatal event and additional or alternative activities might also play a significant role. Two main elements support this idea: first, maxim ...

In series [7] the test system is E. cloacae. Format: cell-based, E. cloacae 218R1. To be noted: E. cloacae, microdilution in MHB. The procedure: as §2, §3, §4
A general note: Dilution methods test growth across graded concentrations, often in twofold steps.

Series [8] has as its system A. baumannii. The series is described as follows: MIC, broth microdilution in MHB. It counts as cell-based, A. baumannii Ab5075. As to the method: as §2, §3, §4
Series [9] relates to planktonic A. baumannii. Put plainly: Planktonic time-kill assay. Format: cell-based. As to conditions: ~5 × 10^5 CFU/mL in MHB, at the MIC, 37 °C. The procedure:
The bactericidal activity of As-CATH8 and antibiotics was evaluated against planktonic S. aureus SAP0017 and A. baumannii cells under similar conditions to those used in the antimicrobial assays. Bacteria were grown overnight in LB media and diluted to ~5 × 10^5 CFU/mL in MHB. […] Samples were taken at 0, 0.5, 1, 2 and 20 h after treatment and CFU counts determined by serial dilution and plating on LB agar.

Series [10] has as its system K. pneumoniae. Put plainly: MIC, broth microdilution in MHB. It counts as cell-based, K. pneumoniae KPLN49. As to the method: as §2, §3, §4
Series [11] deals with A. baumannii cytoplasmic membrane. Put plainly: Membrane depolarization (DiSC3(5)) and permeabilization (PI) assay with CFU enumeration. Format: cell-based. To be noted: A. baumannii planktonic cells, 1 h treatment. As to the method:
The cytoplasmic membrane depolarization and permeabilization activities of As-CATH8 compared to those of antibiotics (vancomycin or polymyxin B) were assessed against S. aureus SAP0017 and A. baumannii using the membrane-potential sensitive dye DiSC3(5) and the cell viability dye PI [36]. The membrane-permeabilizing peptide mastoparan was included as a positive control and water served as a negative (untreated) control.
Briefly, after growth in LB, mid-log phase bacteria were centrifuged and washed twice with 5 mM HEPES buffer supplemented with 20 mM glucose (HEPES-Gluc). Cell density was adjusted to ~10^7 CFU/mL in (HEPES-Gluc) supplemented with 0.1 M KCl. […] After incubation, 190 μL/well of the cultures were added to black opaque 96-well plates (Corning Inc.) and pre-treatment fluorescence was monitored every 2 min for a total of 10 min using a Synergy H1 Hybrid Multi-Mode Reader (BioTek, Winooski, VT, USA). […] After assessing that fluorescence values remained stable, bacteria were treated with 10 μL/well of peptide, antibiotic or water. Fluorescence was quantified 1 h after treatment under the same conditions and represented as a function of peptide concentration, subtracting the background of untreated cells.
To assess bacterial survival after treatment, supernatants from the fluorescence assays were serial diluted and plated for CFU enumeration. […]

Series [12] deals with P. vulgaris. It counts as cell-based, P. vulgaris HSC7200-T2. As to conditions: microdilution in MHB. As to the method: as §2, §3, §4
Series [13] deals with A. baumannii biofilms. Put plainly: Biofilm-killing assay. Format: cell-based. To be noted: A. baumannii 24 h biofilms, 10% TSB + 0.1% glucose, 64 × MIC. As to the method: as §1
Series [14] concerns E. coli. Format: cell-based, E. coli O157:H7. To be noted: microdilution in MHB. The procedure:
as §2, §3, §4

Series [15] deals with S. Typhimurium. Format: cell-based, S. enterica subsp. enterica serovar Typhimurium ATCC 14028. As to conditions: S. Typhimurium, microdilution in MHB. The procedure:
as §2, §3, §4

The subject of series [16] is P. aeruginosa. Put plainly: MIC, broth microdilution in MHB. Format: cell-based, P. aeruginosa PAO1. As to the method:
as §2, §3, §4

[17] abbreviates: first concentration without visible growth, mode of at least three independent experiments.

Regarding `CN[C@H](CC(C)C)C(=O)N[C@H]1C(=O)N[C@@H](CC(N)=O)C(=O)N[C@H]2C(=O)N[C@H]3C(=O)N[C@H](C(=O)N[C@H](C(=O)O)c4cc(O)cc(O)c4-c4cc3ccc4O)[C@H](O)c3ccc(c(Cl)c3)Oc3cc2cc(c3O[C@@H]2O[C@H](CO)[C@@H](O)[C@H](O)[C@H]2O[C@H]2C[C@](C)(N)[C@H](O)[C@H](C)O2)Oc2ccc(cc2Cl)[C@H]1O` [Vancomycin, vancomycin], the “Membrane depolarization (DiSC3(5) fluorescence) and permeabilization (PI fluorescence), result in words” value in series [1] is on record as “almost no effect”. Also, in series [2], the “Capacity for binding to DNA, result in words” value is “no”. Further, the “Effect on biofilms at 2 h, result in words” value in series [3] (2 h time point) is listed as “modest effect”. The “Effect on biofilms after 20 h, result in words” value in series [3] (20 h of treatment) is reported as “potent activity”. For the same molecule, the minimum inhibitory concentration (MIC) in [4] (Enterococcus faecium, first concentration without visible growth, mode of at least three independent experiments) was above 64 µM; in series [4] (Enterococcus faecium, value in brackets of Table S4) it was above 93 µg/mL; in series [4] (setting [17]), above 64 µM; in series [5] (Staphylococcus aureus, first concentration without visible growth, mode of at least three independent experiments), 0.5 µM; in series [5] (Staphylococcus aureus, value in brackets of Table S4), 0.7 µg/mL; in [5] (setting [17]), 0.5 µM. Besides, the Net charge result in series [6] is recorded as “+1”.

Turning to polymyxin B, the MIC in [7] (setting [17]) amounted to 0.5 µM; in series [7] (value in brackets of Table S4) it was 0.6 µg/mL; in series [8] (setting [17]) it was 0.5 µM; in series [8] (value in brackets of Table S4), 0.6 µg/mL; in series [10] (setting [17]), 0.5 µM; in [10] (value in brackets of Table S4), 0.6 µg/mL. In addition, the MIC in series [12] (setting [17]) is above 64 µM; in series [12] (value in brackets of Table S4), above 77 µg/mL; in series [14] (setting [17]), 0.5 µM; in [14] (value in brackets of Table S4), 0.6 µg/mL; in series [15] (setting [17]), 1 µM; in [15] (value in brackets of Table S4), 1.2 µg/mL. Besides, the figures for the MIC in [16] (setting [17]) and in series [16] (value in brackets of Table S4) were 0.5 µM and 0.6 µg/mL, respectively. Moreover, the “Time to complete killing of planktonic cells” value in series [9] is recorded as “up to 20 h”. Further, the “Membrane depolarization (DiSC3(5) fluorescence) and permeabilization (PI fluorescence), result in words” value in series [11] is recorded as “almost no effect”. The “Capacity for binding to DNA, result in words” value in series [2] is “weak”. Further, the “Time to complete eradication of biofilms” value in series [13] is recorded as 20 h. For the same molecule, the Net charge result in [6] was “+5”.
